Results published in paper PMC7984827, “A high-content AlphaScreen™ identifies E6-specific small molecule inhibitors as potential therapeutics for HPV^+ head and neck squamous cell carcinomas” (Oncotarget, 2021).
Where two headings read alike, the source gives them in different places.

Key:
[1] = test system: Caspase 3/7 activity in SCC090, SCC104, SiHa; experiment: Caspase 3/7 Glo activity assay, HPV+ cell lines; assay type: cell-based; conditions: 0.75 μM, 24 hr
Experimental: (§1) Cells were seeded into white walled 96-well plates at 2 × 10^4 cells per well in 100 μL media and incubated overnight. GA-OH (0.75 μM) and vehicle were then added and incubated at 37°C for 24 hr. Caspase 3/7 activity was measured using the Caspase 3/7 Glo kit (Promega, Fitchburg, WI, USA) following the manufacturer's instructions. Briefly, room temperature-equilibrated Caspase-Glo reagent was added (Promega) to each well. The plate was mixed by placing it on an orbital shaker and incubated for 30 secs at room temperature, then incubated at room temperature. After a 2-hr incubation, luminescence was measured using a plate-reading fluorimeter (Flx800, Bio-Tek Instrument Co., Winooski, VT, USA). Background activity (blank reaction) was subtracted from all experimental wells. Percent activity of caspase 3/7 in wells treated with GA was then expressed relative to vehicle treated wells.

[2] = test system: HPV+ (SCC47, SCC090, SCC104, SCC152) and HPV- (SCC19, SCC29, SCC49, SCC84) HNSCC cell lines; experiment: MTT cell viability, HNSCC cell line panel; assay type: cell-based; conditions: 24 hr, Figure 7A
Experimental: (§2) All working concentrations were diluted in PBS to the desired concentration before use. To test the effect of gambogic acid and/or its derivatives on cell viability, all cell lines were seeded at 2 × 10^4 per well in 96-well plates and allowed to adhere overnight. Various concentrations of the analogues were added and the cells incubated at 37°C for 24 hr. Viability was then measured using the MTT assay, performed as described previously. All experiments were repeated at least three times (three biological replicates, carried out on different days). Data presented are from a representative experiment. Cell viability and potency were assessed from % inhibition relative to the vehicle control, and IC50 dose curves were generated using GraphPad Prism.

SCC104 (HPV+) = experiment: Colony formation assay, SCC104; assay type: cell-based; conditions: 24 hours treatment then seeded
Experimental: (§3) Sub-confluent monolayer cells were treated with different doses of GA-OH for 24 hours. Cells were trypsinized and re-suspended before re-plating into 6 well plates in DMEM or MEM at 500–1000 cell densities, depending on the cell line. Cells were then allowed to grow for 10–20 days, depending on the cell line, before fixing and staining. A mixture of methanol/acetic acid was used for fixing, followed by 0.5% crystal violet staining. Plates were imaged using UV imager, and colonies with more than […] counted using image J. Surviving fractions were determined by dividing the number of colonies by the number of cells seeded as a product of the corresponding plating efficiency. Survival fractions curves were plotted using GraphPad Prism.

E6-Caspase 8 binding = target: T1, E6-Caspase 8 binding (Human papillomavirus type 16, UniProt P03126); experiment: biochemical; design: species or system HPV E6, human Caspase 8; conditions: for inhibitory activity against E6-caspase 8 binding relative to GA (in words): SAR of analogs, Figure 6A; for activity against E6-caspase 8 binding, deviation from the parent compound (less active): relative to gambogic acid
T1 construct: made in house; host or cells: E. coli
Experimental: The compounds were diluted to a working concentration in DMSO and screened at a single-point final concentration of 10 μM with no replicates. Briefly, 75 nL of each compound was transferred and added to wells of the destination 384-well plate using the Echo dispenser to 4 μL of blocking solution. 4 μL of 800 nM GST-E6 and 4 μL of His6-Caspase 8 were added and pre-incubated at room temperature for 60 minutes. 8 μL of the donor and acceptor bead mixture (final concentration of 20 μg/ml) was then added. The plates were sealed and incubated for 4 hours at room temperature before the plates were read using the EnvisionTM Multi-Label plate reader (Perkin Elmer Inc.). […] A 10-point serial dilution of these compounds was done for dose-dependency reconfirmation. Dose response inhibition curves were constructed and IC50 calculated using GraphPad Prism using four parameter non-linear regression analysis.
The first counter-screen assay was based using the GST-His6 fusion peptide as the E6-binding partner instead of GST-E6-His6-Caspase 8. Hit candidate compounds from the primary screen were prepared using a 6-point serial dilution. Using an Echo dispenser, compounds were transferred to plates containing 4 μL of blocking buffer. 8 μL of 5 nM GST-His6 peptide substrate was then added. The mixture was pre-incubated at room temperature for 60 minutes. Glutathione donor and nickel chelate acceptor beads (final concentration 20 μg/mL) were added and incubated for another 60 minutes at room temperature. Dose-dependency of the compounds using GST-E6-His6-Caspase 8 was performed in parallel using the same protocol as in the primary screen. The signals were then read using the Envision™ plate reader.
(§4) Using the SciFinder and Zinc15 databases, we searched and identified several gambogic acid structural analogs. A subset of these analogues was commercially available and we purchased 8. The 8 analogs were obtained as follow: gambogenic amide (Enzo Life Sciences), gambogenic acid (Selleckchem), morellic acid (Aobious), 30-hydroxy gambogic acid (Quality Phytochemicals, LLC), acetyl gambogic acid (Microsource), and gambogin, neogambogic acid and isomorellinol (MolPort Natural Products). Additional gambogic acid was purchased from Tocris. The interactions of the analogues with E6-caspase 8 was tested using AlphaScreen™ technology using the same protocol as with the primary screen, and were compared to the parent compound. The effect on cell viability was also similarly done in HPV^+ and HPV^- cell lines via the MTT assay (see below) and potency was determined using GraphPad IC50 curve fitting.

[3] = test system: Caspase 3/7 activity in SCC19, SCC84; experiment: Caspase 3/7 Glo activity assay, HPV- cell lines; assay type: cell-based; conditions: 0.75 μM, 24 hr
Experimental: as §1

[4] = test system: p53, p21, caspase 8 in SCC90 and SCC104 cells; experiment: Western blotting of p53, p21 and caspase 8 in HPV+ cells; assay type: cell-based; conditions: 24 hours
Experimental: Adherent cells were washed with ice cold PBS. Cell lysis buffer containing protease inhibitor cocktail was added and cells were scraped off into a tube on ice. The cells were incubated on ice for 10 minutes. Cell lysates were separated by SDS-PAGE and electrophoretically transferred to PVDF membranes. Following blocking, antibodies directed against caspase 8, p53, cleaved PARP, cleaved caspase 3, p21, and β-actin (Cell signaling) were applied at 1:5000 dilution. Anti-mouse and anti-rabbit secondary antibodies were then employed (LI-COR Biosciences, Lincoln, NE, USA). Signals were measured using the Odyssey Infrared Imaging system (LI-COR Biosciences) and quantified using Image J.

SCC19 (HPV-) = experiment: Colony formation assay, SCC19; assay type: cell-based; conditions: 24 hours treatment then seeded
Experimental: as §3

[5] = test system: HPV+ HNSCC cell line SCC104; experiment: MTT cell viability assay of analogs in SCC104; assay type: cell-based; conditions: SCC104, 24 hr; for activity / potency in cell-based MTT assay (in words): Figure 6B
Text: as §4, §2

E6-E6AP binding = target: T2, E6-E6AP binding (Human papillomavirus type 16, UniProt P03126); experiment: biochemical; design: species or system HPV E6
T2 construct: made in house; host or cells: E. coli
Text: Compounds that passed the two counter-screens were subjected to cheminformatic analysis as an additional filter for recognition and exclusion of compounds with problematic substructures. These substructures contain functional groups that may disrupt binding in many unrelated biochemical assays in a non-specific manner. Specifically, from the names and SMILES of the hit compounds we queried the following databases to find hits with pan assay interference (PAINS) patterns: Zinc15, SwissADME, FAFdrugs4 and PAINS-Remover. Compounds that made it onto the consensus list as having no PAINS patterns after filtering with these online tools were then selected. We then cross-validated the selected compound(s) with a related but different primary screen assay. Specifically, we replaced the caspase 8 used in the primary screen with E6AP and evaluated the inhibitory activity against E6 binding to E6AP (E6-E6AP) using the same steps as in the AlphaScreen™ protocol described above.

[6] = design: method as in PMID 18384990, PMID 29077076; conditions: toxicities to organs only at high concentrations; cited from earlier work

T1 sequence (P03126 whole entry): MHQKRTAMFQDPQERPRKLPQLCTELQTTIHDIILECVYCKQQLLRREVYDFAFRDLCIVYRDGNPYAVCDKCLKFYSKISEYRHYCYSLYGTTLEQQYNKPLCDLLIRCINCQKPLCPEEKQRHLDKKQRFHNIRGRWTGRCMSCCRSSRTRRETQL
T2 sequence (P03126 whole entry): as above

CC(C)=CCCC1(C)C=Cc2c(O)c3c(c(CC=C(C)C)c2O1)OC12C(=CC4CC1C(C)(C)OC2(CC=C(CO)C(=O)O)C4=O)C3=O (stereo not drawn) [GA-OH, 30-hydroxygambogic acid]
apoptosis induction (Caspase 3/7 activity) [1]: Significant apoptosis induction | sensitivity of HPV+ versus HPV- HNSCC cell lines, MTT cell viability [2]: higher sensitivity | number of colonies (SCC104 (HPV+)): significantly and dose-dependently reduced | inhibitory activity against E6-caspase 8 binding relative to GA (in words) (E6-Caspase 8 binding): more effectively inhibited E6 binding to caspase 8 than any of the other analogs or the parent compound | apoptosis activity (Caspase 3/7 activity) [3]: little to no apoptosis activity | caspase 8 cleavage by western blot ([4]; HPV+ cells, 0.5 μM and 1 μM): cleavage of caspase 8 in a dose-dependent manner | p53 level by immunoblotting ([4]; SCC90 and SCC104, 0.5 μM and 1 μM): increase of p53 | p21 level by immunoblotting ([4]; compared to vehicle control, 0.5 μM and 1 μM): robust induction | number of colonies (SCC19 (HPV-)): did not exhibit significant reduction relative to their control except at high concentrations | activity / potency in cell-based MTT assay (in words) [5]: highest potency of all analogs

CC(C)=CCc1c2c(c(O)c3c1O[C@]14C(=C[C@@H]5C[C@H]1C(C)(C)O[C@@]4(C/C=C(/C)C(=O)O)C5=O)C3=O)C=CC(C)(C)O2 [analog #2, morellic acid]
inhibitory activity against E6-caspase 8 binding relative to GA (in words) (E6-Caspase 8 binding): did not significantly affect the activity

CC(C)=CCC/C(C)=C/Cc1c(O)c(CC=C(C)C)c2c(c1O)C(=O)C1=C[C@@H]3C[C@H]4C(C)(C)O[C@@](C/C=C(/C)C(=O)O)(C3=O)[C@@]14O2 [analog #3, gambogenic acid]
activity against E6-caspase 8 binding, deviation from the parent compound (less active) (E6-Caspase 8 binding): > 3 logs | rank of highest IC50 relative to the parent compound, MTT [5]: third

CC(C)=CCC[C@]1(C)C=Cc2c(O)c3c(c(CC=C(C)C)c2O1)O[C@]12C(=C[C@@H]4CC1C(C)(C)O[C@@]2(C/C=C(/C)C(N)=O)C4=O)C3=O [analog #4, gambogic amide]
inhibitory activity against E6-caspase 8 binding relative to GA (in words) (E6-Caspase 8 binding): did not significantly affect the activity

CC(C)=CCCC1(C)CC(O)c2c(O)c3c(c(CC=C(C)C)c2O1)OC12C(=CC4CC1C(C)(C)OC2(C/C=C(\C)C(=O)O)C4=O)C3=O (stereo not drawn) [analog #5, neo-gambogic acid]
activity against E6-caspase 8 binding, deviation from the parent compound (less active) (E6-Caspase 8 binding): > 3 logs | rank of highest IC50 relative to the parent compound, MTT [5]: fourth

CC(C)=CCCC1(C)C=Cc2c(O)c3c(c(CC=C(C)C)c2O1)O[C@]12C(=CC4C[C@H]1C(C)(C)OC2(CC=C(C)C)C4=O)C3=O (stereo partly drawn) [analog #6, gambogin]
activity against E6-caspase 8 binding, deviation from the parent compound (less active) (E6-Caspase 8 binding): > 3 logs | rank of highest IC50 relative to the parent compound, MTT [5]: first

CC(C)=CCc1c2c(c(O)c3c1OC14C(=CC5CC1C(C)(C)OC4(C/C=C(\C)CO)C5=O)C3=O)C=CC(C)(C)O2 (stereo not drawn) [analog #7, iso morellinol]
inhibitory activity against E6-caspase 8 binding relative to GA (in words) (E6-Caspase 8 binding): did not significantly affect the activity

CC(=O)Oc1c2c(c(CC=C(C)C)c3c1C(=O)C1=C[C@@H]4CC5C(C)(C)OC(C/C=C(\C)C(=O)O)(C4=O)[C@@]15O3)OC(C)(CCC=C(C)C)C=C2 (stereo partly drawn) [analog #8, acetyl iso-gambogic acid]
inhibitory activity against E6-caspase 8 binding relative to GA (in words) (E6-Caspase 8 binding): did not significantly affect the activity | activity / potency in cell-based MTT assay (in words) [5]: diminished activity

CC(C)=CCC[C@]1(C)C=Cc2c(O)c3c(c(CC=C(C)C)c2O1)O[C@]12C(=C[C@@H]4C[C@H]1C(C)(C)O[C@@]2(C/C=C(/C)C(=O)O)C4=O)C3=O [gambogic acid]
IC50 (E6-E6AP binding): 1700 nM | IC50 (E6-Caspase 8 binding; 11 compounds that passed counter-screening (Supplementary Table 3), read-out: IC50 against E6-Caspase 8 binding): 2000 nM | IC50 (E6-Caspase 8 binding; head-to-head comparison gambogic acid vs myricetin (Figure 4A), read-out: IC50 against E6-Caspase 8): 1900 nM | tolerability in animal studies [6]: relatively tolerable

O=c1c(O)c(-c2cc(O)c(O)c(O)c2)oc2cc(O)cc(O)c12 [myricetin, reference compound]
IC50 (E6-E6AP binding): 5600 nM | IC50 (E6-Caspase 8 binding; IC50 against E6-Caspase 8): 4600 nM
